# Laboratory results from patent US11053204B2, “Pyrimidinyloxy benzene derivatives as herbicides” (FMC Corporation, priority 2015, dated 2021).
# Tests used:
# Assay type in all cases: in vivo
# [1] = system: Italian ryegrass (Lolium multiflorum); test: Test A preemergence, visual injury rating; settings: for Ryegrass, Italian plant response rating: 0 to 100 scale (0 no effect, 100 complete control)
# Summary of the method: (§1)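 Greenhouse pot test, loam/sand soil. Formulation: non-phytotoxic solvent mix plus surfactant. Pre: directed spray onto soil after sowing. Post: plants at 1–2 leaf, 2–10 cm. Rated visually vs untreated controls at ~10 d, 0 (no effect) to 100 (complete control).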
# [2] = system: barnyardgrass (Echinochloa crus-galli); test: Test A preemergence, visual injury rating; settings: for Barnyardgrass plant response rating: 0 to 100 scale (0 no effect, 100 complete control)
# Summary of the method: as §1
# [3] = system: giant foxtail (Setaria faberii); test: Test A preemergence, visual injury rating; settings: for Foxtail, Giant plant response rating: 0 to 100 scale (0 no effect, 100 complete control)
# Summary of the method: as §1
# kochia (Kochia scoparia) [4] = test: Test A preemergence, visual injury rating; settings: for Kochia plant response rating: 0 to 100 scale (0 no effect, 100 complete control)
# Summary of the method: as §1
# [5] = system: pigweed (Amaranthus retroflexus); test: Test A preemergence, visual injury rating; settings: for Pigweed plant response rating: 0 to 100 scale (0 no effect, 100 complete control)
# Summary of the method: as §1
# [6] = system: ragweed (common ragweed, Ambrosia elatior); test: Test A preemergence, visual injury rating; settings: for Ragweed plant response rating: 0 to 100 scale (0 no effect, 100 complete control)
# Summary of the method: as §1
# [7] = system: Italian ryegrass (Lolium multiflorum); test: Test A postemergence, visual injury rating; settings: 0 is no effect, 100 is complete control; for Ryegrass, Italian plant response rating: 0 to 100 scale, approximately 10 days; for Ryegrass, Italian plant response rating (0 to 100 scale): 500 g ai/ha
# Summary of the method: as §1
# [8] = system: barnyardgrass (Echinochloa crus-galli); test: Test A postemergence, visual injury rating; settings: 0 is no effect, 100 is complete control; for Barnyardgrass plant response rating: 0 to 100 scale, approximately 10 days; for Barnyardgrass plant response rating (0 to 100 scale): 500 g ai/ha
# Summary of the method: as §1
# [9] = system: blackgrass (Alopecurus myosuroides); test: Test A postemergence, visual injury rating; settings: 0 is no effect, 100 is complete control; for Blackgrass plant response rating: 0 to 100 scale, approximately 10 days; for Blackgrass plant response rating (0 to 100 scale): 500 g ai/ha
# Summary of the method: as §1
# corn (Zea mays) = test: Test A postemergence, visual injury rating; settings: 0 is no effect, 100 is complete control; for Corn plant response rating: 0 to 100 scale, approximately 10 days; for Corn plant response rating (0 to 100 scale): 500 g ai/ha
# Summary of the method: as §1
# [10] = system: galium (catchweed bedstraw, Galium aparine); test: Test A postemergence, visual injury rating; settings: 0 is no effect, 100 is complete control; for Galium plant response rating: 0 to 100 scale, approximately 10 days; for Galium plant response rating (0 to 100 scale): 500 g ai/ha
# Summary of the method: as §1
# [11] = system: giant foxtail (Setaria faberii); test: Test A postemergence, visual injury rating; settings: 0 is no effect, 100 is complete control; for Foxtail, Giant plant response rating: 0 to 100 scale, approximately 10 days; for Foxtail, Giant plant response rating (0 to 100 scale): 500 g ai/ha
# Summary of the method: as §1
# kochia (Kochia scoparia) [12] = test: Test A postemergence, visual injury rating; settings: 0 is no effect, 100 is complete control; for Kochia plant response rating: 0 to 100 scale, approximately 10 days; for Kochia plant response rating (0 to 100 scale): 500 g ai/ha
# Summary of the method: as §1
# [13] = system: pigweed (Amaranthus retroflexus); test: Test A postemergence, visual injury rating; settings: 0 is no effect, 100 is complete control; for Pigweed plant response rating: 0 to 100 scale, approximately 10 days; for Pigweed plant response rating (0 to 100 scale): 500 g ai/ha
# Summary of the method: as §1
# [14] = system: ragweed (common ragweed, Ambrosia elatior); test: Test A postemergence, visual injury rating; settings: 0 is no effect, 100 is complete control; for Ragweed plant response rating: 0 to 100 scale, approximately 10 days; for Ragweed plant response rating (0 to 100 scale): 500 g ai/ha
# Summary of the method: as §1
# [15] = system: wheat (Triticum aestivum); test: Test A postemergence, visual injury rating; settings: 0 is no effect, 100 is complete control; for Wheat plant response rating: 0 to 100 scale, approximately 10 days; for Wheat plant response rating (0 to 100 scale): 500 g ai/ha
# Summary of the method: as §1
# [16] = system: barnyardgrass (Echinochloa crus-galli); test: Test B flooded paddy test, plant response rating; settings: 250 g ai/ha; Flood; scale of 0 to 100 where 0 is no effect and 100 is complete control; 13 to 15 days
# Summary of the method: (§2)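 Compound was added to standing water 3 cm above soil, flood maintained, and plants held in a greenhouse before visual scoring against controls at 13 to 15 days.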
# [17] = system: ducksalad (Heteranthera limosa); test: Test B flooded paddy test, plant response rating; settings: 250 g ai/ha; Flood; scale of 0 to 100 where 0 is no effect and 100 is complete control; 13 to 15 days
# Summary of the method: as §2
# rice (Oryza sativa) = test: Test B flooded paddy test, plant response rating; settings: 250 g ai/ha; Flood; scale of 0 to 100 where 0 is no effect and 100 is complete control; 13 to 15 days
# Summary of the method: as §2
# [18] = system: sedge, umbrella (small-flower umbrella sedge, Cyperus difformis); test: Test B flooded paddy test, plant response rating; settings: 250 g ai/ha; Flood; scale of 0 to 100 where 0 is no effect and 100 is complete control; 13 to 15 days
# Summary of the method: as §2
# [19] = 31 g ai/ha, 0 to 100 scale, 0 no effect, 100 complete control
Structure (SMILES),"Ryegrass, Italian plant response rating ([1]; 125 g ai/ha)",Barnyardgrass plant response rating ([2]; 125 g ai/ha),"Foxtail, Giant plant response rating ([3]; 125 g ai/ha)",Kochia plant response rating (kochia (Kochia scoparia) [4]; 125 g ai/ha),Pigweed plant response rating ([5]; 125 g ai/ha),Ragweed plant response rating ([6]; 125 g ai/ha),"Ryegrass, Italian plant response rating ([7]; 125 g ai/ha)",Barnyardgrass plant response rating ([8]; 125 g ai/ha),Blackgrass plant response rating ([9]; 125 g ai/ha),Corn plant response rating (corn (Zea mays); 125 g ai/ha),Galium plant response rating ([10]; 125 g ai/ha),"Foxtail, Giant plant response rating ([11]; 125 g ai/ha)",Kochia plant response rating (kochia (Kochia scoparia) [12]; 125 g ai/ha),Pigweed plant response rating ([13]; 125 g ai/ha),Ragweed plant response rating ([14]; 125 g ai/ha),Wheat plant response rating ([15]; 125 g ai/ha),"Plant response rating, Barnyardgrass [16]","Plant response rating, Ducksalad [17]","Plant response rating, Rice (rice (Oryza sativa))","Plant response rating, Sedge, Umbrella [18]",further results
CCC(C)OC(=O)c1c(Br)cccc1Oc1ncc(Cl)cn1 (stereo not drawn) [Compound 84],0,0,0,0,0,0,0,0,0,10,30,0,30,30,0,0,0,0,0,0,"Ryegrass, Italian plant response rating ([1]; 500 g ai/ha): 0; Barnyardgrass plant response rating ([2]; 500 g ai/ha): 90; Foxtail, Giant plant response rating ([3]; 500 g ai/ha): 100; Kochia plant response rating (kochia (Kochia scoparia) [4]; 500 g ai/ha): 0; Pigweed plant response rating ([5]; 500 g ai/ha): 100; Ragweed plant response rating ([6]; 500 g ai/ha): 0; Ryegrass, Italian plant response rating (0 to 100 scale) [7]: 0; Barnyardgrass plant response rating (0 to 100 scale) [8]: 40; Blackgrass plant response rating (0 to 100 scale) [9]: 0; Corn plant response rating (0 to 100 scale) (corn (Zea mays)): 40; Galium plant response rating (0 to 100 scale) [10]: 40; Foxtail, Giant plant response rating (0 to 100 scale) [11]: 60; Kochia plant response rating (0 to 100 scale) (kochia (Kochia scoparia) [12]): 70; Pigweed plant response rating (0 to 100 scale) [13]: 70; Ragweed plant response rating (0 to 100 scale) [14]: 0; Wheat plant response rating (0 to 100 scale) [15]: 20"
O=C(SCC(F)(F)F)c1c(Br)cccc1Oc1ncc(Cl)cn1 [Compound 85],0,0,0,0,0,0,0,0,0,10,30,0,30,30,0,0,0,0,0,0,"Ryegrass, Italian plant response rating ([1]; 500 g ai/ha): 0; Barnyardgrass plant response rating ([2]; 500 g ai/ha): 10; Foxtail, Giant plant response rating ([3]; 500 g ai/ha): 70; Kochia plant response rating (kochia (Kochia scoparia) [4]; 500 g ai/ha): 0; Pigweed plant response rating ([5]; 500 g ai/ha): 60; Ragweed plant response rating ([6]; 500 g ai/ha): 0; Ryegrass, Italian plant response rating (0 to 100 scale) [7]: 0; Barnyardgrass plant response rating (0 to 100 scale) [8]: 20; Blackgrass plant response rating (0 to 100 scale) [9]: 0; Corn plant response rating (0 to 100 scale) (corn (Zea mays)): 40; Galium plant response rating (0 to 100 scale) [10]: 90; Foxtail, Giant plant response rating (0 to 100 scale) [11]: 60; Kochia plant response rating (0 to 100 scale) (kochia (Kochia scoparia) [12]): 80; Pigweed plant response rating (0 to 100 scale) [13]: 70; Ragweed plant response rating (0 to 100 scale) [14]: 0; Wheat plant response rating (0 to 100 scale) [15]: 20"
CCCCc1c(C#N)cccc1Oc1ncc(Cl)cn1 [Compound 86],20,90,50,100,100,0,20,40,20,30,70,30,100,40,0,40,40,100,20,100,"Plant response rating, Ryegrass, Italian [1, 19]: 0; Plant response rating, Barnyardgrass [2, 19]: 0; Plant response rating, Foxtail, Giant [3, 19]: 0; Plant response rating, Kochia (kochia (Kochia scoparia) [4]; [19]): 10; Plant response rating, Pigweed [5, 19]: 20; Plant response rating, Ragweed [6, 19]: 0; Ryegrass, Italian plant response rating ([7]; 31 g ai/ha): 0; Barnyardgrass plant response rating ([8]; 31 g ai/ha): 20; Blackgrass plant response rating ([9]; 31 g ai/ha): 0; Corn plant response rating (corn (Zea mays); 31 g ai/ha): 30; Galium plant response rating ([10]; 31 g ai/ha): 30; Foxtail, Giant plant response rating ([11]; 31 g ai/ha): 10; Kochia plant response rating (kochia (Kochia scoparia) [12]; 31 g ai/ha): 90; Pigweed plant response rating ([13]; 31 g ai/ha): 30; Ragweed plant response rating ([14]; 31 g ai/ha): 0; Wheat plant response rating ([15]; 31 g ai/ha): 30"
